Measurements published in US20260217837A1, “FGFR3 BINDING MOLECULES AND METHODS OF USE THEREOF” (Regeneron Pharmaceuticals, Inc., priority 2023, published 2026).

Tests used:
[1] = tested on: locally advanced or metastatic bladder cancer; conditions: patients who receive cisplatin; Wong & Rosenberg, 2021; cited from earlier work
[2] = tested on: BaF3 cells expressing the double mutant FGFR3 S249C+V557M; assay: BaF3 cell viability, FGFR3 S249C+V557M; format: cell-based; conditions: 72 hours, FGF1/heparin
Source text: (§1) cDNA expressing FGFR3 mutants (S249C, S248C, Y375C, V555M, V555L, S249C+V555M, or S249C+V555L) were synthesized and cloned into pLVX Lenti-viral vector (Thermo Fisher). Viral particles were generated by lipofectamine transfection of LentiX 293T cells using Lenti-X packaging single shots following manufacturer's protocol (Clontech/Takara) and concentrated using Lenti-X concentrator and titer determined using Lenti-X p24 rapid titer kit (Clontech/Takara). BaF3 cells were transduced with virus at ~0.3 MOI.
(§2) For cell proliferation assays, engineered BaF3/hFGFR3 cells grown in complete medium were washed and plated in IL-3-free culture media±5 μg/ml heparin and 1 nM human FGF1. Cells were plated out at 1×10^5 cells/well into 96-well plates, followed by the addition of 1:3 serially diluted antibodies as indicated in figures. After addition of antibodies, cells were incubated at 37° C. for 72 h followed by the addition of CellTiter-Glo™ (Promega) reagent. The luminescent signal was detected by Envision plate reader (PerkinElmer). Data was analyzed using Prism software (GraphPad). […]

[3] = tested on: BaF3 cells expressing FGFR3 V557L; assay: BaF3 cell viability, FGFR3 V557L; format: cell-based; conditions: 72 hours, FGF1/heparin
Source text: as §1, §2

[4] = tested on: BaF3 cells expressing the double mutant FGFR3 S249C+V557L; assay: BaF3 cell viability, FGFR3 S249C+V557L; format: cell-based; conditions: 72 hours, FGF1/heparin
Source text: as §1, §2

[5] = tested on: BaF3 cells expressing FGFR3 V557M; assay: BaF3 cell viability, FGFR3 V557M; format: cell-based; conditions: 72 hours, FGF1/heparin
Source text: as §1, §2

Compound	median overall survival [1]	growth of BaF3 cells expressing FGFR3 S249C+V557M [2]	growth of BaF3 cells expressing FGFR3 V557L [3]	growth of BaF3 cells expressing FGFR3 S249C+V557L [4]	growth of BaF3 cells expressing FGFR3 V557M [5]
N.N.[Cl][Pt][Cl] [cisplatin]	approximately 14 months	–	–	–	–
AZD4547 [reference compound]	–	ineffective	ineffective	ineffective	ineffective
